The subject of experiment [1] is P. falciparum male gametocytes. As to the kind of experiment: P. falciparum Dual Gamete Formation Assay (PfDGFA), male readout (exflagellation). In kind it is cell-based, Plasmodium falciparum NF54. To be noted: for % inhibition male (individual replicates) R1: replicate R1; for % inhibition male (individual replicates) R3: replicate R3; for % inhibition male (individual replicates) R4: replicate R4; for Average inhibition male (%): average of replicates; for Activity: hit = >50% inhibition in male or female readout in at least 3 replicates, 0 = no class assigned. How it is done:
(§1) P. falciparum NF54 (originally isolated from an imported malaria case in the Netherlands in the 1980s; BEI Resources, cat. No. MRA-1000) strain asexual parasites were maintained between 0.3–5% parasitaemia by regular passage in complete culture medium (RPMI supplemented with 25 mM HEPES, 50 μg ml^−1 hypoxanthine, 4.8 g l^−1 NaHCO3, 2mM L-glutamine, 5% pooled type AB serum, 0.5% Albumax II (Gibco)) at 4% haematocrit in washed whole blood (National Blood and Transfusion Service or Centro de Transfusiones de la Comunidad de Madrid CTCM) under a 1% O2/3% CO2/96% N2 environment. Gametocytes were induced by seeding culture flasks at 2% parasitaemia/4% haematocrit and subjecting them to daily medium changes for 14 days whilst maintaining a temperature of 37°C at all times. On Day 14, the maturity of gametocytes was assessed by quantifying male gametogenesis (exflagellation). A 20 μl sample of gametocyte culture was mixed with equal volume of ookinete medium (complete culture medium supplemented with 0.1 μM xanthurenic acid) at room temperature and transferred to a haemocytometer. After 20 min at room temperature, exflagellation was accurately quantified as described in Delves et al. 2016 [17].
(§2) The Pf DGFA was performed as described in Delves et al. 2016 [17]. […] Plates were then incubated for 24 h at 37°C in a humidified box under a 1% O2/3% CO2/96% N2 gas mix. Gametogenesis was triggered by addition of 10 μl per well of ookinete medium + 0.27 μg ml^-1 Cy3-labelled anti-Pfs25 antibody. Plates were incubated on a metal block at 4°C for 4 min to ensure even cooling, then 28°C for a further 4 min. Exflagellation was recorded by capturing 10 frames over 1 s under brightfield illumination using a x4 objective with a 1.5x zoom (effectively x6) attached to an automated Nikon Ti fluorescence microscope. After recording exflagellation, plates were incubated for a further 24 h in the dark at 28°C to ensure maximal expression of Pfs25 by female gametes. The plates were then returned to the microscope and female gametes imaged at x6 using fluorescence microscopy.
(§3) Exflagellation centres and female gametes were quantified using custom image analysis pipelines developed within ICY Bioimage Analysis (https://icy.bioimageanalysis.org/).

The test system of experiment [2] is P. falciparum female gametocytes. Put plainly: P. falciparum Dual Gamete Formation Assay (PfDGFA), female readout (Pfs25-positive female gametes). In kind it is cell-based, Plasmodium falciparum NF54. Conditions: for % inhibition female (individual replicates) R1: replicate R1; for % inhibition female (individual replicates) R3: replicate R3; for % inhibition female (individual replicates) R4: replicate R4; for Average inhibition female (%): average of replicates. How it is done: as §1, §2, §3

Where [3] appears, read: PfDGFA at 2µM, 24h preincubation with gametocytes prior to induction of gametogenesis.
[4] abbreviates: PfDGFA at 2µM, 24h preincubation.
Setting [5] is: 2µM, 24h preincubation with gametocytes prior to induction of gametogenesis.
[6] abbreviates: 2µM, 24h preincubation, hits selected on >50% inhibition in the male readout across replicates.
Where [7] appears, read: 2µM, 24h preincubation, hits selected on >50% inhibition in the female readout across replicates.
Setting [8] is: 2µM, 24h preincubation with gametocytes.

The source of these data is paper PMC10584170, “Machine learning-based phenotypic imaging to characterise the targetable biology of Plasmodium falciparum male gametocytes for the development of transmission-blocking antimalarials” (PLOS Pathogens, 2023).

Turning to `CC(=O)c1ccc(NC(=O)NNC(=O)c2ccc(CCN3CCC(c4nc(COCC(F)(F)F)c(-c5ccc(F)cc5)o4)CC3)cc2)cc1` [TCMDC-131905], in experiment [1] (setting [3]), the “% inhibition male (individual replicates) R1” value came to 1.3%, the “% inhibition male (individual replicates) R3” value amounted to 7.6% and the “% inhibition male (individual replicates) R4” value amounted to 18.2%. In addition, the “Average inhibition male (%)” value in experiment [1] (setting [4]) is recorded as 9.5%. In experiment [2] (setting [3]), the “% inhibition female (individual replicates) R1” value came to 5.8%, the “% inhibition female (individual replicates) R3” value was -31.0% and the “% inhibition female (individual replicates) R4” value amounted to 36.9%. Also, the “Average inhibition female (%)” value in experiment [2] (setting [4]) was found to be 3.6%.

Turning to `COc1cc2ncnc(Nc3ccc(OCc4ccccc4)c(OCc4ccccc4)c3)c2cc1OC.Cl` [TCMDC-131922], in experiment [1] (setting [5]), the “Average inhibition male (%)” value came out at 5.7%, the “% inhibition male (individual replicates) R1” value was 10.5%, the “% inhibition male (individual replicates) R3” value is 8.7% and the “% inhibition male (individual replicates) R4” value is listed as 6.9%. The molecule also had a HitlevelM in experiment [1] (setting [6]) of 0. In experiment [1] (setting [4]), this molecule returned an Activity of 0. For the same molecule, in experiment [2] (setting [5]), the “Average inhibition female (%)” value was 10.3%, the “% inhibition female (individual replicates) R1” value amounted to 5.3%, the “% inhibition female (individual replicates) R3” value came out at 31.5% and the “% inhibition female (individual replicates) R4” value came to 4.3%. In experiment [2] (setting [7]), this molecule returned a HitlevelF of 0.

Consider `Nc1nc(N)c2c(ccc3c2cnn3Cc2cccnc2)n1` [TCMDC-131932], for which, in experiment [1] (setting [5]), the “Average inhibition male (%)” value is recorded as 12.5%, the “% inhibition male (individual replicates) R1” value is listed as 4.3%, the “% inhibition male (individual replicates) R3” value stood at 31.7% and the “% inhibition male (individual replicates) R4” value came out at 1.1%. In experiment [1] (2µM, 24h preincubation, number of replicates with >50% inhibition in the male readout), this molecule returned a HitlevelM of 0. Besides, in experiment [2] (setting [5]), the “Average inhibition female (%)” value turned out to be 18.1%, the “% inhibition female (individual replicates) R1” value is on record as 3.3%, the “% inhibition female (individual replicates) R3” value is on record as 58.3% and the “% inhibition female (individual replicates) R4” value turned out to be 1.8%. The HitlevelF in experiment [2] (2µM, 24h preincubation, number of replicates with >50% inhibition in the female readout) is recorded as 1.

For `COc1ccc2nc(Nc3nc4cnccc4[nH]3)sc2c1` [TCMDC-131950], in experiment [1] (setting [5]), the “Average inhibition male (%)” value is listed as -15.4%, the “% inhibition male (individual replicates) R1” value is reported as -6.4%, the “% inhibition male (individual replicates) R3” value was -26.4% and the “% inhibition male (individual replicates) R4” value is listed as -8.5%. The molecule further gave a HitlevelM in experiment [1] (setting [6]) of 0. This molecule registered an Activity in experiment [1] (setting [4]) of 0. For the same molecule, in experiment [2] (setting [5]), the “Average inhibition female (%)” value worked out at 7.4%, the “% inhibition female (individual replicates) R1” value is on record as 12.1%, the “% inhibition female (individual replicates) R3” value is given as -4.5% and the “% inhibition female (individual replicates) R4” value is on record as 3.8%. For the same molecule, in experiment [2] (setting [7]), the HitlevelF is reported as 0.

As to `O=[N+]([O-])c1ccc(C=NO)nc1` [TCMDC-131967], in experiment [1] (setting [8]), the “Average inhibition male (%)” value is recorded as 97.7%, the “% inhibition male (individual replicates) R1” value is recorded as 97.9%, the “% inhibition male (individual replicates) R3” value worked out at 95.1% and the “% inhibition male (individual replicates) R4” value came out at 101.6%. Moreover, in experiment [2] (setting [8]), the “Average inhibition female (%)” value was 41.1%, the “% inhibition female (individual replicates) R1” value is given as 34.5%, the “% inhibition female (individual replicates) R3” value stood at 28.1% and the “% inhibition female (individual replicates) R4” value came out at 43.8%.

On to `CS(=O)(=O)c1ccc(-n2nc(C(F)(F)F)cc2-c2ccc(C=NOCC(=O)O)o2)cc1` [TCMDC-132015], for which, in experiment [1] (setting [3]), the “% inhibition male (individual replicates) R1” value was 7.6%, the “% inhibition male (individual replicates) R3” value is listed as -4.4% and the “% inhibition male (individual replicates) R4” value is -18.5%. Further, the “Average inhibition male (%)” value in experiment [1] (setting [4]) was -6.3%. Further, in experiment [2] (setting [3]), the “% inhibition female (individual replicates) R1” value stood at 5.4%, the “% inhibition female (individual replicates) R3” value is -21.4% and the “% inhibition female (individual replicates) R4” value was found to be 0.25%. Also, the “Average inhibition female (%)” value in experiment [2] (setting [4]) is reported as -6.9%.
